According to patent publication US20250101062A1, “ANTIMICROBIAL PEPTIDES” (Board of Regents of the University of Nebraska, priority 2023, published 2025):
Read-outs that look alike come from different tables or passages of the source. Where no end group is shown, it is not given here.

Key:
MRSA USA300 = test: Membrane permeabilization (propidium iodide); format: cell-based, Staphylococcus aureus; conditions: Example 1, 1×MIC
Experimental: The peptide ladder was prepared as described for the antibacterial assay with 10 μL of solution in a black COSTAR® 96-well plate. PI (MP Biomedicals, Solon, OH) was prepared in the dark and dissolved in dimethylsulfoxide (Thermo Fisher Scientific, NY) to 20 mM. This PI stock solution was further diluted to 1 mM with water, and 2 μL of 1 mM PI was added to each well. Exponential-phase MRSA USA300 was diluted to OD600 0.11 with TSB, and 88 μL was added to each well. The plate was incubated at 37° C. with continuous shaking in a FLUOstar® Omega (BMG LABTECH, NC) microplate reader. The sample was read every 5 minutes for 24 cycles with excitation and emission wavelengths of 584 and 620 nm, respectively.
Bacterial membrane permeation was conducted (Yeaman, et al. (1998) J. Clin. Invest., 101(1):178-87). In brief, the peptide ladder was prepared as described for the antibacterial assay with 10 μL in a black COSTAR 96-well plate. Propidium iodide (PI) (MP Biomedicals, Solon, OH) was prepared in the dark and dissolved in DMSO (Thermo Fisher Scientific, NY) to 20 mM. This PI stock solution was further diluted to 1 mM with water and 2 μL of 1 mM PI was added to each well. Exponential phase MRSA USA300 or P. aeruginosa E411-17 was diluted to OD600 0.11 with tryptic soy broth (TSB) and 88 μL was added to each well. The plate was incubated at 37° C. with continuous shaking in a FLUOstar® Omega (BMG LABTECH, NC) microplate reader. The sample was read every 5 minutes for 24 cycles with excitation and emission wavelengths at 584 nm and 620 nm, respectively.

[1] = Effect of MHB dilution on antibacterial activity of a panel of antibiotics; format: cell-based; conditions: MHB from 100 to 12.5%
Experimental: FIGS. 2A-2D show biofilm disruption activity of human LL-37 (FIGS. 2A and 2B) and 17BIPHE2 (FIGS. 2C and 2D) against the 24 hour preformed biofilms of S. aureus USA300 LAC in different MHB media: 12.5% MHB (FIGS. 2A and 2C) and 100% MHB (FIGS. 2B and 2D). FIGS. 2E-2H show the treatment outcome of LL-37 (FIGS. 2E and 2F) and 17BIPHE2 (FIGS. 2G and 2H) against the 24-hour preformed biofilms of E. coli E423-17 in different MHB media: 12.5% MHB (FIGS. 2E and 2G) and 100% MHB (FIGS. 2F and 2H). […] Growth curves of S. aureus USA 300 LAC (FIGS. 2J-2K) and P. aeruginosa 152 (FIGS. 2L-2M) in 12.5%, 25%, 50% and 100% MHB or TSB medium (curves from bottom to top).
The effects of MHB dilution on the antimicrobial activity of a panel of antibiotics was also compared (FIG. 2I).

S. aureus USA300 LAC = test: microbe, parasite or virus in culture; format: cell-based, Staphylococcus aureus
Experimental: (§1) The following resistant bacterial clinical strains were used in this study: S. aureus USA300 LAC, S. epidermidis 1457, E. coli E423-17, P. aeruginosa E411-17, K. pneumoniae E406-17, and A. baumannii B28-16. While the S. aureus USA300 strain is methicillin-resistant, most of the Gram-negative bacteria contain extended-spectrum beta-lactamase and are resistant to beta-lactam antibiotics. Peptide activity against bacteria was tested using an established lab protocol (Mishra, et al. (2017) Acta Biomater., 49:316-328). In brief, a peptide concentration gradient with twofold dilution was made in the 96-well polystyrene microplate at 10 μL per well. Bacteria were grown to the exponential phase (i.e., optical density at 600 nm≈0.5), diluted to ˜10^5 CFU/mL in different percentages of MHB, TSB, or LB, and partitioned into the 96-well microplate at 90 μL per well. […] They were diluted with autoclaved distilled water to obtain different percentages. The microplates were incubated at 37° C. overnight and read on a ChroMate™ 4300 microplate reader at 600 nm (GMI, Ramsey, MN). The peptide concentration in the wells without bacterial growth is the MIC. As is the convention, MIC values were represented as ranges.
(§2) For pH effects on peptide activity, the pH of the medium was adjusted to a targeted pH for the autoclave and then remeasured at room temperature. For salt and serum effects on peptide activity, stock NaCl solution or human serum was added to the media.
(§3) Peptide activity against bacteria were tested using the CLSI standard procedure with minor modifications (Clinical and Laboratory Standards Institute (2018) Performance standards for antimicrobial susceptibility testing, 9th ed.; Mishra, et al. (2019) Proc. Natl. Acad. Sci., 116(27):13517-13522). In brief, a peptide concentration gradient with twofold dilution was made in the 96-well polystyrene microplate at 10 μL per well. Bacteria were grown to the exponential phase (i.e., optical density at 600 nm≈0.5), diluted to ˜10^5 CFU/mL in MHB, and partitioned into the 96-well microplate at 90 μL per well. The microplates were incubated at 37° C. overnight and read on a ChroMate® 4300 Microplate Reader at 600 nm (GMI, Ramsey, MN). The peptide concentration in the wells without bacterial growth is the minimal inhibitory concentration (MIC). As the convention, MIC values were represented as ranges.
(§4) For pH effects on peptide activity, the pH of the medium was adjusted to a targeted pH for autoclave and then remeasured at room temperature. For salt and serum effects on peptide activity, stock NaCl solution or human serum were added to the media.

E. coli E423-17 [2] = test: Membrane permeabilization (propidium iodide); format: cell-based, Escherichia coli; conditions: Example 1, 1×MIC
human red blood cells = test: Hemolytic assay; format: cell-based; conditions: red cells of human
Experimental: The hemolytic effects of peptides were evaluated using a method with minor modifications (Lakshmaiah Narayana, et al. (2021) ACS Infect. Dis., 7:1795-1808). Human red blood cells (hRBCs, UNMC Blood Bank) were washed (3×) with blood bank saline (isotonic solution 0.90% w/v, Fisher). Cells were diluted to 2% using the saline solution, and aliquots of 90 μL were added to a 96-well polystyrene microplate containing 10 μL of serially diluted peptide solutions. After incubation at 37° C. for 1 hour, plates were centrifuged at 500 g for 5 minutes. Aliquots of the supernatant were transferred to a 96-well microplate. The amount of hemoglobin released was measured at 545 nm by using a ChroMate™ microplate reader. […] HC50 is defined as the concentration of the peptide that caused 50% lysis.
The hemolytic effects of peptides were evaluated (Narayana, et al. (2020) Proc. Natl. Acad. Sci., 117(32):19446-9454). In brief, human red blood cells (UNMC Blood Bank) were washed (3×) and diluted to 2% using the saline solution. Aliquots of 90 μL were mixed with 10 μL of serially diluted peptide solutions. After incubation at 37° C. for 1 hour, plates were centrifuged at 500 g for 5 minutes and aliquots of the supernatant were transferred to a new 96-well microplate to measure the amount of hemoglobin released at 545 nm (relative to 1% Triton® X-100) using a ChroMate® Microplate Reader.

K. pneumoniae E406-17 = format: cell-based, Klebsiella pneumoniae
Experimental: as §1, §3

A. baumannii B28-16 = format: cell-based, Acinetobacter baumannii; conditions: B28-16
Experimental: as §1, §3

E. coli E423-17 [3] = format: cell-based, Escherichia coli; conditions: E423-17
Experimental: as §1, §2, §3, §4

[4] = system: human keratinocyte HaCaT cells; test: Cell viability assay (MTS); format: cell-based
Experimental: Human keratinocyte HaCaT cells were grown in DMEM/high glucose (Hyclone, UT) containing 10% fetal bovine serum (Mediatech, Corning, Manassas, VA). […] The mixture was incubated at 37° C. in 5% CO2 for 24 hours.
(§5) HepG2 cells were cultured in ATCC-formulated Eagle's Minimum Essential Medium with 10% FBS. A549 cells were grown in ATCC-formulated F-12K Medium containing 10% FBS.

P. aeruginosa E411-17 = test: microbe, parasite or virus in culture; format: cell-based, Pseudomonas aeruginosa; conditions: for MIC: read-out: Antimicrobial activity (MIC)
Experimental: as §1, §2, §3, §4

S. epidermidis 1457 = test: microbe, parasite or virus in culture; format: cell-based, Staphylococcus epidermidis; conditions: for MIC: read-out: Antimicrobial activity (MIC) S. epidermidis 1457
Experimental: as §1, §3

Cytotoxicity assay (MTS) = format: cell-based; conditions: human, HepG2 cells, read-out: LC50
Experimental: as §5

P. aeruginosa E416-17 = format: cell-based, Pseudomonas aeruginosa
Experimental: as §3

[5] = USA300, pH 6.21, read-out: Antimicrobial activity (MIC)
[6] = USA300, pH 7.22, read-out: Antimicrobial activity (MIC)
[7] = USA300, pH 8.13, read-out: Antimicrobial activity (MIC)
[8] = USA300, read-out: Antimicrobial activity (MIC)

Row | Substance | Hemolysis (HC10), 10% hemolytic concentration (human red blood cells) [µM] | Antimicrobial activity (MIC) A. baumannii B28-16 (A. baumannii B28-16) [µM] | Antimicrobial activity (MIC) E. coli E423-17 (E. coli E423-17 [3]) [µM] | MIC (S. aureus USA300 LAC; [5]) [µM] | MIC (S. aureus USA300 LAC; [6]) [µM] | MIC (S. aureus USA300 LAC; [7]) [µM] | MIC (S. aureus USA300 LAC; [8]) [µM] | Antimicrobial activity (MIC) P. aeruginosa E411-17 (P. aeruginosa E411-17; E411-17) [µM] | MIC (P. aeruginosa E411-17; E411-17, pH 6.21) [µM] | MIC (P. aeruginosa E411-17; E411-17, pH 8.13) [µM] | CC50 at 24 h (Cytotoxicity assay (MTS)) [µM] | MIC K. pneumoniae E406-17 (K. pneumoniae E406-17) [µM] | MIC P. aeruginosa E416-17 (P. aeruginosa E416-17) [µM] | other results
1 | Gentamicin | – | – | – | – | – | – | – | – | – | – | – | – | – | membrane permeabilization (MRSA USA300): no fluorescence increase; change in MIC with dilution of MHB [1]: essentially no changes; Antimicrobial activity (MIC) (S. aureus USA300 LAC; MRSA in MHB, 10% serum): 0.5 to 1 µM; Antimicrobial activity (MIC) (S. aureus USA300 LAC; MRSA in MHB, 20% serum): 0.5 µM; Antimicrobial activity (MIC) (S. aureus USA300 LAC; MRSA in MHB, NaCl (150 mM)): 1 µM; Antimicrobial activity (MIC) (S. aureus USA300 LAC; MRSA in MHB, pH 6.3): 1 to 2 µM; Antimicrobial activity (MIC) (S. aureus USA300 LAC; MRSA in MHB, pH 7.2): 0.5 µM; membrane permeabilization (E. coli E423-17 [2]): did not permeate the E. coli membrane
2 | KRIWQRWK-NH2 [W540] | – | – | – | – | – | – | – | – | – | – | – | – | – | HC50 (50% hemolysis) (human red blood cells): ~150 µM; Activity (MIC) K. pneumoniae (K. pneumoniae E406-17): >32 µM; Activity (MIC) A. baumannii (A. baumannii B28-16): >32 µM; Activity (MIC) E.coli (E. coli E423-17 [3]): >32 µM; Activity (MIC) S. aureus (S. aureus USA300 LAC; USA300): >32 µM; toxicity to human HaCaT skin cells [4]: more toxic than the other peptides; Activity (MIC) P. aeruginosa (P. aeruginosa E411-17; E411-17): >32 µM
3 | KRWWQWWK-NH2 [KR-8+] | 300 | 16 to 32 | 4 | >32 | 8 | 8 | 16 | 8 | 8 | 8 | 12.5 | – | – | Antimicrobial activity (MIC) (S. aureus USA300 LAC; USA300): 16 to 32 µM; Antimicrobial activity (MIC) S. aureus USA300 (S. aureus USA300 LAC; USA300): 8 to 16 µM; MIC (P. aeruginosa E411-17; E411-17, pH 7.22): 8 µM; Antimicrobial activity (MIC) S. epidermidis 1457 (S. epidermidis 1457): 16 to 32 µM
4 | KWKRFFRGWL-NH2 [RetroLL-10+] | – | – | – | – | – | – | – | – | – | – | – | >32 | 4 | –
5 | LWGRFFRKWK-NH2 [LL-10+] | > 400 | >32 | 32 | >32 | 16 | 4 | > 32 | 8 to 16 | 16 | 8 | > 100 | >32 | 8 | MIC E. coli E423-17 (E. coli E423-17 [3]): 32 µM; MIC S. aureus USA300 (S. aureus USA300 LAC; USA300): 16 µM; MIC (S. aureus USA300 LAC; USA300, read-out: Antimicrobial activity (MIC) S. aureus USA300): 16 µM; MIC (P. aeruginosa E411-17; E411-17, pH 7.22): 8 µM; MIC (P. aeruginosa E411-17; E411-17): >32 µM; MIC (S. epidermidis 1457): 32 µM
6 | RRWWRWWL-NH2 [W544] | – | – | – | – | – | – | – | – | – | – | – | – | – | HC50 (50% hemolysis) (human red blood cells): about 80 μM; Activity (MIC) K. pneumoniae (K. pneumoniae E406-17): 8 to 16 µM; Activity (MIC) A. baumannii (A. baumannii B28-16): 8 to 16 µM; toxicity to human HaCaT skin cells [4]: more toxic than the other peptides; Activity (MIC) P. aeruginosa (P. aeruginosa E411-17; E411-17): 4 µM
7 | RWWKKWWGK-NH2 [RK-9+] | > 400 | >32 | 8 | >32 | 8 | 4 | 32 | 8 to 16 | 32 | 4 | > 100 | – | – | Antimicrobial activity (MIC) (S. aureus USA300 LAC; USA300): 16 to 32 µM; Antimicrobial activity (MIC) S. aureus USA300 (S. aureus USA300 LAC; USA300): 8 to 16 µM; Antimicrobial activity (MIC) (P. aeruginosa E411-17; E411-17, pH 7.22): 8 to 16 µM; MIC (P. aeruginosa E411-17; E411-17): >32 µM; MIC (S. epidermidis 1457): 16 µM
8 | VWNRLFRKWR-NH2 [RetroRIK-10++] | – | – | – | – | – | – | – | – | – | – | – | >32 | 16 | –
